Results reported in patent publication US11591355B2 (Peloton Therapeutics, Inc., priority 2017, dated 2023).

How the values were obtained:
Human CD73 = biological target: T1, Human CD73 (Homo sapiens, UniProt P21589); assay: CD73 Enzyme Assay; type: biochemical; conditions: 0.25 nM hCD73, 25 μM AMP, kinetic read at 360 nm; read-out: CD73 Enzyme Assay IC50
T1 construct: purchased R&D Systems; host or cells: CHO cells
T1 sequence (P21589 27-549): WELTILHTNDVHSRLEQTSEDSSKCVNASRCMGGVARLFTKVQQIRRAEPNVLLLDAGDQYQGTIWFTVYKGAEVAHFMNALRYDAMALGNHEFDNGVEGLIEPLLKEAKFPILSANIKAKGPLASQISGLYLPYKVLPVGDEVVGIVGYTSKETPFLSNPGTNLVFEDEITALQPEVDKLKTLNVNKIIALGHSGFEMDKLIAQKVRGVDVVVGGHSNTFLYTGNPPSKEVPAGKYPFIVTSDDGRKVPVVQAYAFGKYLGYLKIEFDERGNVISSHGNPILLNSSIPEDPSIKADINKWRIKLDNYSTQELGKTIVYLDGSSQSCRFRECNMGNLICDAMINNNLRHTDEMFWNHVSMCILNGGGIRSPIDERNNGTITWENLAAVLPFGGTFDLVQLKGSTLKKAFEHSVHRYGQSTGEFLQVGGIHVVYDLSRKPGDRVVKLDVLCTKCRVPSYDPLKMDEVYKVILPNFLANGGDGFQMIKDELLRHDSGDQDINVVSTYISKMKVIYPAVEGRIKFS

[1] = biological target: T2, CD73 on U138 human neuroglioma cells (Homo sapiens, UniProt P21589); assay: CD73 Cell-Based Assay; conditions: U138 cells, AMP substrate, 2 hours at 37° C., inorganic phosphate by malachite green
T2 construct: U138 cells were obtained from ATCC and cultured in DMEM with 10% FBS; host or cells: U138 human neuroglioma cells
T2 sequence (P21589 27-549): T1 sequence (P21589 27-549)
How it was run: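 Whole U138 cells washed free of phosphate were incubated with 200 μM AMP (mixture concentration before equal-volume addition) plus compound in HEPES-buffered saline, pH 7.4, for 2 h at 37 °C, 5% CO2. Adenosine-forming activity read as inorganic phosphate released into supernatant by malachite green.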

Row | Compound | IC50 (Human CD73) [µM] | IC50 [1] [µM]
1 | C[C@H](Nc1nc(C#N)nc2c1ccn2[C@@H]1O[C@H](COCP(=O)(O)O)[C@@H](O)[C@H]1O)c1ccc(F)cc1F [Compound 138, [(2R,3S,4R,5R)-5-[2-cyano-4-[[(1S)-1-(2,4-difluorophenyl)ethyl]-amino]pyrrolo[2,3-d]-pyrimidin-7-yl]-3,4-dihydroxy-tetrahydro-furan-2-yl]methoxy-methylphosphonic acid] | < 0.01 | < 0.01
2 | C[C@H](Nc1nc(Cl)nc2c1ccn2[C@@H]1O[C@H](COCP(=O)(O)O)[C@@H](O)[C@H]1O)c1ccc(F)cn1 [Compound 139, [(2R,3S,4R,5R)-5-[2-chloro-4-[[(1S)-1-(5-fluoro-2-pyridyl)-ethyl]amino]pyrrolo-[2,3-d]pyrimidin-7-yl]-3,4-dihydroxy-tetrahydrofuran-2-yl]-methoxymethylphos-phonic acid] | < 0.01 | 0.01 to 0.1
3 | C[C@H](Nc1nc(C#N)nc2c1ccn2[C@@H]1O[C@H](COCP(=O)(O)O)[C@@H](O)[C@H]1O)c1ccc(C#N)cc1 [Compound 141, [(2R,3S,4R,5R)-5-[2-cyano-4-[[(1S)-1-(4-cyanophenyl)ethyl]-amino]pyrrolo[2,3-d]-pyrimidin-7-yl]-3,4-dihydroxy-tetrahydro-furan-2-yl]methoxy-methylphosphonic acid] | < 0.01 | < 0.01
4 | C[C@@H](Nc1nc(Cl)nc2c1ccn2[C@@H]1O[C@H](COCP(=O)(O)O)[C@@H](O)[C@H]1O)c1ccc(F)cc1F [Compound 144, [(2R,3S,4R,5R)-5-[2-chloro-4-[[(1R)-1-(2,4-difluorophenyl)-ethyl]amino]pyrrolo-[2,3-d]pyrimidin-7-yl]-3,4-dihydroxy-tetrahydrofuran-2-yl]-methoxymethylphos-phonic acid] | < 0.01 | < 0.01
5 | C[C@H](Nc1nc(C#N)nc2c1ccn2[C@@H]1O[C@H](COCP(=O)(O)O)[C@@H](O)[C@H]1O)c1ccc(F)cn1 [Compound 146] | 0.1 to 1 | 0.01 to 0.1
6 | C[C@H](Nc1nc(Cl)nc2c1ccn2[C@@H]1O[C@H](CS(=O)(=O)CP(=O)(O)O)[C@@H](O)[C@H]1O)c1ccccc1 [Compound 153, [(2S,3S,4R,5R)-5-[2-chloro-4-[[(1S)-1-phenylethyl]amino]-pyrrolo[2,3-d]-pyrimidin-7-yl]-3,4-dihydroxy-tetrahydro-furan-2-yl]methyl-sulfonylmethylphos-phonic acid] | < 0.01 | 0.01 to 0.1
7 | C[C@@H](Nc1nc(Cl)nc2c1ccn2[C@@H]1O[C@H](CS(=O)(=O)CP(=O)(O)O)[C@@H](O)[C@H]1O)c1ccccc1 [Compound 154, [(2S,3S,4R,5R)-5-[2-chloro-4-[[(1R)-1-phenylethyl]amino]-pyrrolo[2,3-d]-pyrimidin-7-yl]-3,4-dihydroxy-tetrahydro-furan-2-yl]methyl-sulfonylmethylphos-phonic acid] | < 0.01 | < 0.01
8 | O=P(O)(O)CS(=O)(=O)C[C@H]1O[C@@H](n2ccc3c(NC4CCCC4)nc(Cl)nc32)[C@H](O)[C@@H]1O [Compound 155, (((((2S,3S,4R,5R)-5-(2-chloro-4-(cyclopentylamino)-7H-pyrrolo[2,3-d]pyrimidin-7-yl)-3,4-dihydroxytetrahydrofuran-2-yl)methyl)sulfonyl)methyl)phosphonic acid] | < 0.01 | < 0.01
9 | N#Cc1nc(N2CC3CCCC3C2)c2ccn([C@@H]3O[C@H](CS(=O)(=O)CP(=O)(O)O)[C@@H](O)[C@H]3O)c2n1 (stereo partly drawn) [Compound 158, [(2S,3S,4R,5R)-5-[4-(3,3a,4,5,6,6a-hexa-hydro-1H-cyclopenta-[c]pyrrol-2-yl)-2-cyano-pyrrolo[2,3-d]-pyrimidin-7-yl]-3,4-dihydroxy-tetrahydro-furan-2-yl]methyl-sulfonylmethylphos-phonic acid] | < 0.01 | < 0.01
10 | O=P(O)(O)CS(=O)(=O)C[C@H]1O[C@@H](n2ccc3c(NC4CC5CC5C4)nc(Cl)nc32)[C@H](O)[C@@H]1O (stereo partly drawn) [Compound 159, [(2S,3S,4R,5R)-5-[4-(3-bicyclo[3.1.0]-hexanylamino)-2-chloro-pyrrolo[2,3-d]-pyrimidin-7-yl]-3,4-dihydroxy-tetrahydro-furan-2-yl]methyl-sulfonylmethylphos-phonic acid] | < 0.01 | < 0.01

More lines, now with the values ahead:

Row | IC50 (Human CD73) [µM] | IC50 [1] [µM] | Compound
11 | 0.01 to 0.1 | < 0.01 | Cc1ccc([C@@H](C)Nc2nc(C#N)nc3c2ccn3[C@@H]2O[C@H](COCP(=O)(O)O)[C@@H](O)[C@H]2O)cc1 [Compound 137, [(2R,3S,4R,5R)-5-[2-cyano-4-[[(1R)-1-(p-tolyl)ethyl]amino]-pyrrolo[2,3-d]-pyrimidin-7-yl]-3,4-dihydroxy-tetrahydro-furan-2-yl]methoxy-methylphosphonic acid]
12 | < 0.01 | < 0.01 | C[C@H](Nc1nc(Cl)nc2c1ccn2[C@@H]1O[C@H](COCP(=O)(O)O)[C@@H](O)[C@H]1O)c1ccc(Cl)cc1 [Compound 140, [(2R,3S,4R,5R)-5-[2-chloro-4-[[(1S)-1-(4-chlorophenyl)ethyl]-amino]pyrrolo[2,3-d]-pyrimidin-7-yl]-3,4-dihydroxy-tetrahydro-furan-2-yl]methoxy-methylphosphonic acid]
13 | < 0.01 | < 0.01 | N#Cc1nc(NC2CCC(F)(F)CC2)c2ccn([C@@H]3O[C@H](COCP(=O)(O)O)[C@@H](O)[C@H]3O)c2n1 [Compound 142, [(2R,3S,4R,5R)-5-[2-cyano-4-[(4,4-difluoro-cyclohexyl)amino]-pyrrolo[2,3-d]-pyrimidin-7-yl]-3,4-dihydroxy-tetrahydro-furan-2-yl]methoxy-methylphosphonic acid]
14 | < 0.01 | 0.01 to 0.1 | N#Cc1nc(N2CCCCC2)c2ccn([C@@H]3O[C@H](COCP(=O)(O)O)[C@@H](O)[C@H]3O)c2n1 [Compound 143, [(2R,3S,4R,5R)-5-[2-cyano-4-(1-piperidyl)-pyrrolo[2,3-d]-pyrimidin-7-yl]-3,4-dihydroxy-tetrahydro-furan-2-yl]methoxy-methylphosphonic acid]
15 | 0.1 to 1 | 0.01 to 0.1 | C[C@@H](Nc1nc(C#N)nc2c1ccn2[C@@H]1O[C@H](COCP(=O)(O)O)[C@@H](O)[C@H]1O)c1ccc(F)cn1 [Compound 145, [(2R,3S,4R,5R)-5-[2-cyano-4-[[(1R)-1-(5-fluoro-2-pyridyl)ethyl]-amino]pyrrolo[2,3-d]-pyrimidin-7-yl]-3,4-dihydroxy-tetrahydro-furan-2-yl]methoxy-methylphosphonic acid]
16 | 0.01 to 0.1 | < 0.01 | C[C@H](Nc1nc(C#N)nc2c1ccn2[C@@H]1O[C@H](COCP(=O)(O)O)[C@@H](O)[C@H]1O)c1ccc(C(F)(F)F)cc1 [Compound 147, [(2R,3S,4R,5R)-5-[2-cyano-4-[[(1S)-1-[4-(trifluoromethyl)-phenyl]ethyl]amino]-pyrrolo[2,3-d]-pyrimidin-7-yl]-3,4-dihydroxy-tetrahydro-furan-2-yl]methoxy-methylphosphonic acid]
17 | 0.01 to 0.1 | 0.01 to 0.1 | C[C@H](Nc1nc(Cl)nc2c1ncn2[C@@H]1O[C@H](CS(=O)(=O)CP(=O)(O)O)[C@@H](O)[C@H]1O)c1ccccc1 [Compound 152, [(2S,3S,4R,5R)-5-[2-chloro-6-[[(1S)-1-phenylethyl]amino]-purin-9-yl]-3,4-dihydroxy-tetrahydro-furan-2-yl]methyl-sulfonylmethylphos-phonic acid]
18 | < 0.01 | < 0.01 | O=P(O)(O)CS(=O)(=O)C[C@H]1O[C@@H](n2ccc3c(N4CC5CCCC5C4)nc(Cl)nc32)[C@H](O)[C@@H]1O (stereo partly drawn) [Compound 156, [(2S,3S,4R,5R)-5-[4-(3,3a,4,5,6,6a-hexa-hydro-1H-cyclopenta-[c]pyrrol-2-yl)-2-chloro-pyrrolo[2,3-d]-pyrimidin-7-yl]-3,4-dihydroxy-tetrahydro-hydrofuran-2-yl]-methylsulfonylmethyl-phosphonic acid]
19 | < 0.01 | < 0.01 | C[C@H](c1ccccc1)N(C)c1nc(Cl)nc2c1ccn2[C@@H]1O[C@H](CS(=O)(=O)CP(=O)(O)O)[C@@H](O)[C@H]1O [Compound 157, [(2S,3S,4R,5R)-5-[2-chloro-4-[methyl-[(1R)-1-phenylethyl]-amino]pyrrolo[2,3-d]-pyrimidin-7-yl]-3,4-dihydroxy-tetrahydro-furan-2-yl]methyl-sulfonylmethylphos-phonic acid]
20 | 0.1 to 1 | 0.1 to 1 | CC(C)OP(=O)(O)CS(=O)(=O)C[C@H]1O[C@@H](n2ccc3c(NC4CCCC4)nc(Cl)nc32)[C@H](O)[C@@H]1O [Compound 160, [(2S,3S,4R,5R)-5-[2-chloro-4-(cyclo-pentylamino)pyrrolo-[2,3-d]pyrimidin-7-yl]-3,4-dihydroxy-tetrahydrofuran-2-yl]methylsulfonyl-methyl-isopropoxy-phosphinic acid]
